Test results: patent US11524960B2, “Heterobicyclic inhibitors of MAT2A and methods of use for treating cancer” (AGIOS PHARMACEUTICALS, INC., priority 2018, dated 2022)

How the values were obtained:
[1] = tested on: HCT116 MTAP+/+; test: Inhibition of cellular proliferation (Cell Titer Glo), HCT116 MTAP+/+; assay type: cell-based, human; conditions: Homo sapiens, HCT-116, 96 h, 4 days, IC50 score, read-out: 4 Day Relative Growth Inhibition (MTAP +/+; Example 277)
Description: (§1) Test compound impact on cancer cell growth was assessed by treating cancer cells with compound for 4 days and then measuring proliferation using an ATP-based cell proliferation readout (Cell Titer Glo, Promega Corporation).
(§2) In a typical assay an isogenic pair of HCT116 human colon carcinoma cell lines which vary only in MTAP deletion status (HCT116 MTAP+/+ and HCT116 MTAP−/−) were plated in 96-well dishes at appropriate cell density. Following 24 hours, cells were then treated with the candidate MAT2A inhibitor. Prior to addition to cells, the compound was first serially diluted in 100% DMSO, typically as a 3-fold serial dilution starting at 500× top dose with 10 dose points including DMSO only control. Compound was then transferred to a working stock plate in cell culture media by adding 5 μl of compound in DMSO to 495 μl of cell culture media. This working stock was then added to cells via a further 5-fold dilution, by adding 25 μl of working stock to 100 μl of cells in culture media. Following compound addition, cells were incubated at 37° C./5% C02 for 4 days.
(§3) To measure inhibition of cellular proliferation, cells were allowed to equilibrate to room temperature for 30 minutes, and were then treated with 125 μl of Cell Titer Glo reagent. The plate was then covered with aluminum foil and shaken for 15 minutes to ensure complete mixing and full cell lysis. Luminescent signal was then measured using a plate-based luminometer Veritas version 1.9.2 using ATP standard curve to confirm assay reproducibility from run to run. This luminescence measure was converted to a proliferation index by subtracting from each data point the ATP luminescence signal measured from a bank (no cells) well and dividing by the ATP luminescence signal measured in 0.2% DMSO control well adjusted for signal in blank well. Compound activity was then represented as a percentage change in proliferation relative to a within-plate DMSO control against log10 of compound concentration in molar (M) units.

[2] = tested on: SAM in HCT116 human colon carcinoma cell line engineered to delete the MTAP gene (MTAP −/−); test: Cellular assay of target engagement (SAM) by LC-MS/MS; assay type: cell-based; conditions: Homo sapiens, HCT-116, 72 h, IC50 score, read-out: Cell 72 h SAM Inhibition (MTAP −/−; Example 276)
Description: Measurement of MAT2A activity in cells was made by direct quantitation of the abundance of the product of its enzymatic activity, SAM. Cancer cells were treated with candidate MAT2A inhibitors for a suitable incubation period, and the cells were then lysed using a reagent which quenched any further enzyme activity. Soluble metabolites including SAM were collected and SAM itself was directly measured from the lysate using quantitative LC-MS/MS.
A typical assay was performed using an HCT116 human colon carcinoma cell line which was genetically engineered to delete the MTAP gene (commercially available from Horizon Discovery). This cell line was utilized because it was determined that loss of the MTAP gene predicts sensitivity to MAT2A inhibitors. Cells were plated in 96-well dishes at appropriate cell density. Following 24 hours, cells were then treated with the candidate MAT2A inhibitor. Prior to addition to cells, the compound was first serially diluted in 100% DMSO, typically as a 3-fold serial dilution starting at 500× top dose with 10 dose points including DMSO only control. Compound was then transferred to a working stock plate in cell culture media by adding 5 μl of compound in DMSO to 495 μl of cell culture media. This working stock was then added to cells via a further 5-fold dilution, by adding 25 μl of working stock to 100 μl of cells in culture media. Following compound addition, cells were incubated at 37° C./5% CO2 for 72 hrs.
To quantitate SAM levels following compound treatment, cells were gently washed once in Ammonium Carbonate buffer (75 mM at pH 7.4), placed on dry ice, and lysed with metabolite extraction buffer (80% cold methanol and 20% water (v/v) with acetic acid at 1 M final concentration with 200 ng/mL deuterated d3-SAM as internal control). Following centrifugation at 4° C. at 3,200 rpm for 30 minutes, the supernatant was collected and stored at −80° C. until analysis by Liquid Chromatography with tandem Mass Spectrometry (LC-MS/MS). LC-MS/MS analysis was performed using an API6500 Mass Spectrometer (Sciex, Framingham, Mass., USA) operating in positive ion spray mode and equipped with a Waters UPLC Acquity (Waters, Milford, Mass., USA) BEH Amide column. Multiple Reaction Monitoring data was acquired for SAM and the d3-SAM standard, using a mass transition pair at m/z 399.2→250.1 and 402.2→250.1, respectively. In a typical LC-MS/MS analysis, the initial flow rate was 0.5 ml/min of 25% mobile phase A (acetonitrile and water at 5:95 (v/v) with 1% formic acid and 10 mM ammonium acetate) and 75% mobile phase B (acetonitrile and water at 95:5 (v/v) with 1% formic acid and 10 mM ammonium acetate), 0.2-0.5 minutes with 75%-35% mobile phase B, 25%-65% mobile phase A, at 0.5 min 65% mobile phase A and 35% mobile phase B, 1.0-1.1 minutes with 35%-75% mobile phase B, 65%-25% mobile phase A, at 1.1 min 25% mobile phase A and 75% mobile phase B with a total run time of 1.5 minutes.

[3] = molecular target: T1, MAT2A homodimer (Homo sapiens, UniProt P31153); test: Biochemical assay: inhibition of MAT2A (phosphate release, PiColorLock Gold); conditions: MAT2A IC50 score; read-out: Enzyme Inhibition (Example 275)
T1 construct: inferred from Ni sepharose purification and imidazole elution; made in house; host or cells: Sf9 insect cells, recombinant baculovirus (Bac to Bac, pFASTBAC1)
T1 sequence (P31153 whole entry): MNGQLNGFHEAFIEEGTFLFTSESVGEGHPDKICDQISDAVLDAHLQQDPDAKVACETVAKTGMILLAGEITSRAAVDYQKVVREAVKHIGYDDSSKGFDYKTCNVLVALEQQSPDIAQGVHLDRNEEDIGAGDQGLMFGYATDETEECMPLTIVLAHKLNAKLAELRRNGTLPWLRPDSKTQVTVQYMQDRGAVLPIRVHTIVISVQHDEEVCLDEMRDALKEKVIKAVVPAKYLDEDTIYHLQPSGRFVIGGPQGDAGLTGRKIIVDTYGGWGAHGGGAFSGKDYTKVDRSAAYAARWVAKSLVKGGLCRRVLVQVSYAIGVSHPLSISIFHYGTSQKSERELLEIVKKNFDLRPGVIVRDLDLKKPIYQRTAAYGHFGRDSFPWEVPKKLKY
How it was run: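 Baculovirus/Sf9-expressed, Ni-purified MAT2A at 4 µg/mL was preincubated with compound for 60 min at 25 °C in 50 mM Tris pH 8.0, 50 mM KCl, 15 mM MgCl2, 0.3 mM EDTA, 0.005% BSA. Substrate mix (500 μM ATP, 400 μM L-methionine) was added and the reaction ran 60 min at 25 °C. Phosphate released stoichiometrically with SAM was measured colorimetrically against a phosphate standard curve.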

[4] = tested on: HCT116 MTAP−/−; test: Inhibition of cellular proliferation (Cell Titer Glo), HCT116 MTAP−/−; assay type: cell-based, human; conditions: Homo sapiens, HCT-116, 96 h, 4 days, IC50 score, read-out: 4 Day Relative Growth Inhibition (MTAP −/−; Example 277)
Description: as §1, §2, §3

| IC50 [1] [µM] | IC50 [2] [µM] | IC50 [3] [µM] | IC50 [4] [µM] | SMILES |
| --- | --- | --- | --- | --- |
| 0.1 to 10 | < 0.1 | < 0.1 | < 0.1 | Cn1cc2cc(-n3cc4ccc(OCC(F)F)nc4c(-c4ccc(OC(F)F)cc4)c3=O)ccc2n1 [Example 126-A] |
| 0.1 to 10 | < 0.1 | < 0.1 | 0.1 to 10 | O=c1c(-c2ccc(OC(F)F)cc2)c2nc(OCC(F)(F)F)ncc2cn1-c1ccc2ncccc2c1 [Example 264, 8-(4-(difluoromethoxy)phenyl)-6-(quinolin-6-yl)-2-(2,2,2-trifluoroethoxy)pyrido[4,3-d]pyrimidin-7(6H)-one] |
| 0.1 to 10 | < 0.1 | < 0.1 | < 0.1 | Cn1cnc2ccc(-n3cc4ccc(OCC(F)(F)F)nc4c(-c4ccc(OC(F)(F)F)nc4)c3=O)cc21 [Example 112-A] |
| 0.1 to 10 | < 0.1 | < 0.1 | 0.1 to 10 | Cn1cc2cc(-n3cc4ncc(OCC(F)F)nc4c(-c4ccc(OC(F)F)nc4)c3=O)ccc2n1 [Example 144-A] |
| 0.1 to 10 | < 0.1 | < 0.1 | < 0.1 | CCOc1ccc2cn(-c3ccc(OC)cc3)c(=O)c(-c3ccc(C)nc3)c2n1 [Example 114-A] |
| > 10 | < 0.1 | < 0.1 | < 0.1 | CC(C)(O)Cn1cc2cc(-n3cc4cnc(NCC(F)(F)F)nc4c(-c4ccc(Cl)cc4)c3=O)ccc2n1 [Example 101-A] |
| 0.1 to 10 | < 0.1 | < 0.1 | < 0.1 | CCOc1ccc2cn(-c3ccc4nn(C)cc4c3)c(=O)c(-c3ccc(CF)nc3)c2n1 [Example 137-A, 2-ethoxy-8-(6-(fluoromethyl)pyridin-3-yl)-6-(2-methyl-2H-indazol-5-yl)-1,6-naphthyridin-7(6H)-one] |
| > 10 | < 0.1 | < 0.1 | 0.1 to 10 | CC(C)Nc1ncc2cn(-c3ccc4ncccc4c3)c(=O)c(-c3ccc(OC(F)F)cc3)c2n1 [Example 182, 8-(4-(difluoromethoxy)phenyl)-2-(isopropylamino)-6-(quinolin-6-yl)pyrido[4,3-d]pyrimidin-7(6)-one] |
| 0.1 to 10 | < 0.1 | < 0.1 | < 0.1 | CCOc1ccc2cn(-c3ccc4nn(C)cc4c3)c(=O)c(-c3ccc(C)nc3)c2n1 [Example 219, 2-ethoxy-6-(2-methyl-2H-indazol-5-yl)-8-(6-methylpyridin-3-yl)-1,6-naphthyridin-7(6H)-one] |
| 0.1 to 10 | 0.1 to 1 | < 0.1 | 0.1 to 10 | Cn1cc2cc(-n3cc4ccc(CCC(F)(F)F)nc4c(-c4ccc(Cl)cc4)c3=O)ccc2n1 [Example 138-A, 8-(4-chlorophenyl)-6-(2-methyl-2H-indazol-5-yl)-2-(3,3,3-trifluoropropyl)-1,6-naphthyridin-7(6H)-one] |
| > 10 | < 0.1 | < 0.1 | < 0.1 | O=c1c(-c2ccc(OC(F)F)cc2)c2nc(NCC(F)(F)F)ncc2cn1-c1ccc2ncsc2c1 [Example 156, 6-(benzo[d]thiazol-6-yl)-8-(4-(difluoromethoxy)phenyl)-2-((2,2,2-trifluoroethyl)amino)pyrido[4,3-d]pyrimidin-7(6H)-one] |
| > 10 | < 0.1 | < 0.1 | < 0.1 | Cn1cc2cc(-n3cc4ccc(NCC(F)(F)F)nc4c(-c4ccc(Cl)cc4)c3=O)ccc2n1 [Example 236, 8-(4-chlorophenyl)-6-(2-methyl-2H-indazol-5-yl)-2-(2,2,2-trifluoroethylamino)-1,6-naphthyridin-7(6H)-one] |
| 0.1 to 10 | < 0.1 | < 0.1 | 0.1 to 10 | CCOc1cnc2cn(-c3ccc4nn(C)cc4c3)c(=O)c(-c3ccc(OC(F)(F)F)nc3)c2n1 [Example 148-A] |
| 0.1 to 10 | < 0.1 | < 0.1 | < 0.1 | CCOc1ccc2cn(-c3ccc4ncn(C)c4c3)c(=O)c(-c3ccc(C(F)(F)F)nc3)c2n1 [Example 226, 2-ethoxy-6-(1-methyl-1H-benzo[d]imidazol-6-yl)-8-(6-(trifluoromethyl)pyridin-3-yl)-1,6-naphthyridin-7(6H)-one] |
| 0.1 to 10 | < 0.1 | < 0.1 | < 0.1 | CCOc1ccc2cn(-c3ccc4nn(C)cc4c3)c(=O)c(-c3ccc(C(F)(F)F)cc3)c2n1 [Example 215, 2-ethoxy-6-(2-methyl-2H-indazol-5-yl)-8-(4-(trifluoromethyl)phenyl)-1,6-naphthyridin-7(6H)-one] |
| > 10 | < 0.1 | < 0.1 | < 0.1 | CCCc1ccc2cn(-c3ccc4ncn(C)c4c3)c(=O)c(-c3ccc(OC(F)F)cc3)c2n1 [Example 260, 8-(4-(difluoromethoxy)phenyl)-6-(1-methyl-1H-benzo[d]imidazol-6-yl)-2-propyl-1,6-naphthyridin-7(6H)-one] |
| > 10 | < 0.1 | < 0.1 | 0.1 to 10 | COc1ccc(-n2cc3cnc(NCC(F)(F)F)nc3c(-c3ccc(CCO)cc3)c2=O)cc1 [Example 205, 8-(4-(2-hydroxyethyl)phenyl)-6-(4-methoxyphenyl)-2-(2,2,2-trifluoroethylamino)pyrido[4,3-d]pyrimidin-7(6H)-one] |
| > 10 | < 0.1 | < 0.1 | < 0.1 | Cn1cnc2ccc(-n3cc4ccc(NCC(F)(F)F)nc4c(-c4ccc(Cl)cc4)c3=O)cc21 [Example 234, 8-(4-chlorophenyl)-6-(1-methyl-1H-benzo[d]imidazol-6-yl)-2-(2,2,2-trifluoroethylamino)-1,6-naphthyridin-7(6H)-one] |
| 0.1 to 10 | < 0.1 | < 0.1 | 0.1 to 10 | COc1ccc(-n2cc3ccc(OCC(F)(F)F)nc3c(-c3ccc(OC(F)F)cc3)c2=O)cc1 [Example 258, 8-(4-(difluoromethoxy)phenyl)-6-(4-methoxyphenyl)-2-(2,2,2-trifluoroethoxy)-1,6-naphthyridin-7(6H)-one] |
